Tested on: P12-Ichikawa
Test: cell viability relative to DMSO control; higher = less cytotoxic
Conditions: 48 h
Outline: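 NOMO1 or SEM cells were plated at 500 cells/well and P12-Ichikawa cells at 1000 cells/well in 1536-well plates (5 μl), after each leukemia line had been adapted for at least four passages in each medium. Pin dosing delivered library compounds in DMSO at 11 threefold concentrations, 47 μM to 0.79 nM. CellTiter-Glo One luminescence was read after 48 h at 37°C. Viability is reported as a per-plate percentage of DMSO wells, with cell-free wells as background.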

[1] = HPLM + 10% dialyzed FBS, 0.000781 µM
[2] = HPLM + 10% dialyzed FBS, 0.00234 µM
[3] = HPLM + 10% dialyzed FBS, 0.00702 µM
[4] = HPLM + 10% dialyzed FBS, 0.0211 µM
[5] = HPLM + 10% dialyzed FBS, 0.0632 µM
[6] = HPLM + 10% dialyzed FBS, 0.19 µM
[7] = HPLM + 10% dialyzed FBS, 0.569 µM
[8] = HPLM + 10% dialyzed FBS, 1.71 µM
[9] = HPLM + 10% dialyzed FBS, 5.12 µM
[10] = HPLM + 10% dialyzed FBS, 15.4 µM
[11] = HPLM + 10% dialyzed FBS, 46.1 µM
[12] = RPMI 5 mM glucose + 10% FBS, 0.000781 µM
[13] = RPMI 5 mM glucose + 10% FBS, 0.00234 µM
[14] = RPMI 5 mM glucose + 10% FBS, 0.00702 µM
[15] = RPMI 5 mM glucose + 10% FBS, 0.0211 µM
[16] = RPMI 5 mM glucose + 10% FBS, 0.0632 µM
[17] = RPMI 5 mM glucose + 10% FBS, 0.19 µM
[18] = RPMI 5 mM glucose + 10% FBS, 0.569 µM
[19] = RPMI 5 mM glucose + 10% FBS, 1.71 µM
[20] = RPMI 5 mM glucose + 10% FBS, 5.12 µM
[21] = RPMI 5 mM glucose + 10% FBS, 15.4 µM
[22] = RPMI 5 mM glucose + 10% FBS, 46.1 µM
[23] = RPMI 5 mM glucose + 10% dialyzed FBS, 0.000781 µM
[24] = RPMI 5 mM glucose + 10% dialyzed FBS, 0.00234 µM
[25] = RPMI 5 mM glucose + 10% dialyzed FBS, 0.00702 µM
[26] = RPMI 5 mM glucose + 10% dialyzed FBS, 0.0211 µM
[27] = RPMI 5 mM glucose + 10% dialyzed FBS, 0.0632 µM
[28] = RPMI 5 mM glucose + 10% dialyzed FBS, 0.19 µM
[29] = RPMI 5 mM glucose + 10% dialyzed FBS, 0.569 µM
[30] = RPMI 5 mM glucose + 10% dialyzed FBS, 1.71 µM
[31] = RPMI 5 mM glucose + 10% dialyzed FBS, 5.12 µM
[32] = RPMI 5 mM glucose + 10% dialyzed FBS, 15.4 µM
[33] = RPMI 5 mM glucose + 10% dialyzed FBS, 46.1 µM

SMILES	cell viability [1] [%]	cell viability [2] [%]	cell viability [3] [%]	cell viability [4] [%]	cell viability [5] [%]	cell viability [6] [%]	cell viability [7] [%]	cell viability [8] [%]	cell viability [9] [%]	cell viability [10] [%]	cell viability [11] [%]	cell viability [12] [%]	cell viability [13] [%]	cell viability [14] [%]	cell viability [15] [%]	cell viability [16] [%]	cell viability [17] [%]	cell viability [18] [%]	cell viability [19] [%]	cell viability [20] [%]	cell viability [21] [%]	cell viability [22] [%]	cell viability [23] [%]	cell viability [24] [%]	cell viability [25] [%]	cell viability [26] [%]	cell viability [27] [%]	cell viability [28] [%]	cell viability [29] [%]	cell viability [30] [%]	cell viability [31] [%]	cell viability [32] [%]	cell viability [33] [%]
NC(=O)c1ccc(-c2nc(-c3ccc4c(c3)OCCO4)c(-c3ccccn3)[nH]2)cc1	120	125	125	118	122	119	124	122	117	117	111	122	126	115	129	117	115	118	131	116	114	110	121	114	120	126	126	121	121	110	127	117	106
CN(C)Cc1ccc(-c2nc3cccc4c3n2CCNC4=O)cc1	90.5	100	105	103	109	102	112	109	108	114	110	92.8	96.3	94.7	108	108	105	106	107	109	109	106	90.2	99.1	101	109	107	111	107	108	105	102	112
O=C1\C=C(/OC2=C1C=CC=C2C3=CC=CC=C3)N4CCOCC4	88.3	93	95.2	91.3	96.3	90.1	94.4	86.5	87.6	85.3	87.1	89.1	84.5	87.6	89.8	91.5	86	75.4	76.8	81.2	74.1	67.9	86.7	84.4	84.1	84.6	89.7	84.1	86	77.2	82.4	80.3	74.1
COc1cc2c(N3CCN(C(=O)Nc4ccc(OC(C)C)cc4)CC3)ncnc2cc1OCCCN1CCCCC1	88.6	92.6	87.4	97.5	91.3	91.6	92.3	90	86	58	43.4	84.3	74.1	80	92.5	86.3	72.8	78.9	80.1	77.4	42.9	48.1	79.5	86.9	84.7	83	81.1	82.2	83.6	79	84.6	38.1	56
CC(C)C[C@H](CN)CC(=O)O	111	106	106	109	106	103	101	102	95.7	94.2	93	99.4	105	102	96.2	101	99.3	93.6	96.1	92.3	91.5	95.6	103	102	107	106	97.1	96	98.9	96.6	95.7	97.9	98.4
COc1cc2nccc(Oc3ccc(NC(=O)Nc4ccc(F)cc4F)c(F)c3)c2cc1OC	95.4	93.2	94.7	100	98.1	89.3	91.8	94.1	85	76.5	12.9	91.1	94.8	88.4	94.8	93.5	92.2	83.8	86	73.5	80.3	13.7	88	98.3	87.5	89.9	82.1	87.4	84.5	85.3	75	81.9	22.2
Cc1ccc(NC(=O)c2ccc(CN3CCN(C)CC3)cc2)cc1Nc1nccc(-c2cccnc2)n1	93.8	95.7	105	97.9	113	103	112	109	110	109	92.7	98.2	107	101	96.5	115	113	114	109	103	105	100	102	107	108	111	109	113	115	104	97.6	112	106

From the supplement of paper PMC11451515
